# From PMC5481569, “A Bacteroidetes locus dedicated to fungal 1,6-β-glucan degradation: Unique substrate conformation drives specificity of the key endo-1,6-β-glucanase” (The Journal of Biological Chemistry, 2017)
# What was measured:
# BT3313 = target: T1, BT3313 (Bacteroides thetaiotaomicron, UniProt Q8A2J2); assay: isothermal titration calorimetry; format: binding; conditions: 50 mM Na-Hepes, pH 7.5, 25 °C
# T1 construct: gene BT_3313; signal peptide (lipoprotein) removed; N-terminal hexahistidine tag; pET28 derivative, E. coli
# T1 sequence (Q8A2J2 20-667): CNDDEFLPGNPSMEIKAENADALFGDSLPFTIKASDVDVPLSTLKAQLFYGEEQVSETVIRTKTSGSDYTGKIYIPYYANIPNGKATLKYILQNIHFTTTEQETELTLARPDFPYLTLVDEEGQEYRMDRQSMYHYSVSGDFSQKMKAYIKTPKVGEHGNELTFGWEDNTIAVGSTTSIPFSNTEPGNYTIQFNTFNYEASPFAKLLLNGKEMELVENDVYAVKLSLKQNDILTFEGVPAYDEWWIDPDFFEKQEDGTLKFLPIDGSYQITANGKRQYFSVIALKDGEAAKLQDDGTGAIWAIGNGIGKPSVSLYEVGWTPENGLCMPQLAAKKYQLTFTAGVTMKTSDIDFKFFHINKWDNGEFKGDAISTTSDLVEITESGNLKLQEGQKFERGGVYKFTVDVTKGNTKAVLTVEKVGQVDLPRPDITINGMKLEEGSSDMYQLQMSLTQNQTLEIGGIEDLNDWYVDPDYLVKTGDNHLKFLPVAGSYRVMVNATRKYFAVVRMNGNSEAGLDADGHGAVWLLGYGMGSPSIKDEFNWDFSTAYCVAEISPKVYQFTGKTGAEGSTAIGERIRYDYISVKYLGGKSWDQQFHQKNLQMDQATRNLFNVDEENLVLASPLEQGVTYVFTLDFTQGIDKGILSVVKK
# Description: isothermal titration calorimetry on BT3313
# BT3311 = target: T2, BT3311 (Bacteroides thetaiotaomicron, UniProt Q8A2J4); assay: isothermal titration calorimetry; format: binding; conditions: 50 mM Na-Hepes, pH 7.5, 25 °C
# T2 construct: gene BT_3311; signal peptide (lipoprotein) removed; N-terminal hexahistidine tag; pET28 derivative, E. coli
# T2 sequence (Q8A2J4 22-506): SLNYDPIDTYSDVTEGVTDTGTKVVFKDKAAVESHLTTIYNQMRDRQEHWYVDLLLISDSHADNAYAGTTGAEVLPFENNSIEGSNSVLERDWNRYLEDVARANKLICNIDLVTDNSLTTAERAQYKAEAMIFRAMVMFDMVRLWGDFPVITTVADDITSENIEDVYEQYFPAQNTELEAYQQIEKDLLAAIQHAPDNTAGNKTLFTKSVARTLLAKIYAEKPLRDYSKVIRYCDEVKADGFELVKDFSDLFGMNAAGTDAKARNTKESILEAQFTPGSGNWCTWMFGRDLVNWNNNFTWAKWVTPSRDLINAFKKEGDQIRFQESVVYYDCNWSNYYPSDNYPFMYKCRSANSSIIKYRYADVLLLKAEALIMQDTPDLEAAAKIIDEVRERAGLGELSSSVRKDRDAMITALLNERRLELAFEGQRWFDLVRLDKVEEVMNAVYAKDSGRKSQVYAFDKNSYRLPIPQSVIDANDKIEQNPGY
# Description: isothermal titration calorimetry on BT3311
# BT3312 = target: T3, BT3312 (Bacteroides thetaiotaomicron, UniProt Q8A2J3); assay: glucose release from […]-β-glucotriose (D-glucose detection kit); also crystal structure, […] Å; format: biochemical
# T3 construct: gene BT_3312; signal peptide (lipoprotein) removed; N-terminal hexahistidine tag; pET28 derivative, E. coli Tuner; residues 82-427 form the TIM barrel domain
# T3 sequence (Q8A2J3 22-496): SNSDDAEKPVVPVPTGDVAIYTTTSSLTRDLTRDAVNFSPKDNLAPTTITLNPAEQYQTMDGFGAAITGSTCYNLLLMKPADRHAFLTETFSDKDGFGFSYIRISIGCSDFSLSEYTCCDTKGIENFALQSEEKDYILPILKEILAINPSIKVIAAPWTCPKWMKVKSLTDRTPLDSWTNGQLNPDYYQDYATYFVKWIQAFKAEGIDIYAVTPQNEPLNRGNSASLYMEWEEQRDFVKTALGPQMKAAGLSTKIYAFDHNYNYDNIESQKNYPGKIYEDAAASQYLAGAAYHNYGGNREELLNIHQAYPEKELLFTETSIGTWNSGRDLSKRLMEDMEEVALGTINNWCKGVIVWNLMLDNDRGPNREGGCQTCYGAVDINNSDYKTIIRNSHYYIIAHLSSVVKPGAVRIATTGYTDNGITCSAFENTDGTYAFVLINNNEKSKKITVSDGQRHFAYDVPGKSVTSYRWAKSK
Ka (BT3313),Ka (BT3311),Ki (BT3312),Structure (SMILES)
1.5 × 10^4 ± 0.2,2.1 × 10^4 ± 0.1,,"OC[C@H]1O[C@@H](OC[C@H]2O[C@@H](OC[C@H]3O[C@@H](OC[C@H]4O[C@@H](OC[C@H]5O[C@@H](OC[C@H]6O[C@@H](OC[C@H]7OC(O)[C@H](O)[C@@H](O)[C@@H]7O)[C@H](O)[C@@H](O)[C@@H]6O)[C@H](O)[C@@H](O)[C@@H]5O)[C@H](O)[C@@H](O)[C@@H]4O)[C@H](O)[C@@H](O)[C@@H]3O)[C@H](O)[C@@H](O)[C@@H]2O)[C@H](O)[C@@H](O)[C@@H]1O (stereo partly drawn) [1,6-β-Glucoheptaose]"
8.0 × 10^3 ± 0.7,1.6 × 10^4 ± 0.1,,"OC[C@H]1O[C@@H](OC[C@H]2O[C@@H](OC[C@H]3O[C@@H](OC[C@H]4O[C@@H](OC[C@H]5O[C@@H](OC[C@H]6OC(O)[C@H](O)[C@@H](O)[C@@H]6O)[C@H](O)[C@@H](O)[C@@H]5O)[C@H](O)[C@@H](O)[C@@H]4O)[C@H](O)[C@@H](O)[C@@H]3O)[C@H](O)[C@@H](O)[C@@H]2O)[C@H](O)[C@@H](O)[C@@H]1O (stereo partly drawn) [1,6-β-Glucohexaose]"
3.6 × 10^3 ± 0.2,8.3 × 10^3 ± 0.3,,"OC[C@H]1O[C@@H](OC[C@H]2O[C@@H](OC[C@H]3O[C@@H](OC[C@H]4O[C@@H](OC[C@H]5OC(O)[C@H](O)[C@@H](O)[C@@H]5O)[C@H](O)[C@@H](O)[C@@H]4O)[C@H](O)[C@@H](O)[C@@H]3O)[C@H](O)[C@@H](O)[C@@H]2O)[C@H](O)[C@@H](O)[C@@H]1O (stereo partly drawn) [1,6-β-Glucopentaose]"
,,~1000 µM,"OC[C@H]1O[C@@H](OC[C@H]2NC[C@H](O)[C@@H](O)[C@@H]2O)[C@H](O)[C@@H](O)[C@@H]1O [compound 5, β-D-Glucopyranosyl-1,6-deoxynojirimycin]"
